Reference: patent US9701670B2, “Pyrazolyl-ureas as kinase inhibitors” (RESPIVERT LIMITED, priority 2013, dated 2017)

Tests used:
[1] = molecular target: T1, p38 MAPKα isoform (MAPK14) (Homo sapiens (Human), UniProt Q16539); assay: p38 MAPKα enzyme inhibition (FRET, Z-LYTE), Method 2; assay type: biochemical; settings: Method 2, different laboratory (Table 4a2)
Procedure: The enzyme inhibitory activities of compounds disclosed herein are determined by FRET using synthetic peptides labelled with both donor and acceptor fluorophores (Z-LYTE, Invitrogen Ltd., Paisley, UK).
The inhibitory activities of test compounds against the p38 MAPKα isoform (MAPK14: Invitrogen), are evaluated indirectly by determining the level of activation/phosphorylation of the down-stream molecule, MAPKAP-K2. The p38 MAPKα protein (80 ng/mL, 2.5 μL) is mixed with the test compound (2.5 μL of either 4 μg/mL, 0.4 μg/mL, 0.04 μg/mL or 0.004 μg/mL) for 2 hr at RT. […] The mixture is incubated for 1 hr at RT. Development reagent (protease, 5 μL) is added for 1 hr prior to detection in a fluorescence microplate reader (Varioskan® Flash, ThermoFisher Scientific).
In all cases, the site-specific protease cleaves non-phosphorylated peptide only and eliminates the FRET signal. Phosphorylation levels of each reaction are calculated using the ratio of coumarin emission (donor) over fluorescein emission (acceptor), for which high ratios indicate high phosphorylation and low ratios indicate low phosphorylation levels.

[2] = system: β-catenin in d-U937 cells; assay: (m) Accumulation of β catenin in d-U937 cells; assay type: cell-based, human
Procedure: U937 cells, a human monocytic cell line, are differentiated into macrophage-type cells by incubation with PMA; (100 ng/mL) for between 48 to 72 hr. The cells are then incubated with either final concentrations of test compound or vehicle for 18 hr. The induction of β-catenin by the test compounds is stopped by replacing the media with 4% formaldehyde solution. Endogenous peroxide activity is neutralised by incubating with quenching buffer (100 μL, 0.1% sodium azide, 1% H2O2 in PBS with 0.05% Tween-20) for 20 min. The cells are washed with washing buffer (200 μL; PBS containing 0.05% Tween-20) and incubated with blocking solution (200 μL; 5% milk in PBS) for 1 hr, re-washed with washing buffer (200 μL) and then incubated overnight with anti-β-catenin antibody solution (50 μL) in 1% BSA/PBS (BD, Oxford, UK).
After washing with washing buffer (3×200 μL; PBS containing 0.05% Tween-20), cells are incubated with an HRP-conjugated secondary antibody solution (100 μL) in 1% BSA/PBS (Dako, Cambridge, UK) and the resultant signal is determined colourimetrically (OD: 450 nm with a reference wavelength of 655 nm) using TMB substrate (50 μL; R&D Systems, Abingdon, UK). This reaction is stopped by addition of 1N H2SO4 solution (50 μL). Cells are then washed with washing buffer and 2% crystal violet solution (50 μL) is applied for 30 min. After washing with washing buffer (3×200 μL), 1% SDS (100 μL) is added to each well and the plates are shaken lightly for 1 hr prior to measuring the absorbance at 595 nm (Varioskan® Flash, Thermo-Fisher Scientific).
The measured OD450-655 readings are corrected for cell number by dividing the OD450-655 by the OD595 readings. […] A signal less than 0.15 (15%) of that observed for the standard control is designated as “-ve”.

[3] = molecular target: T1, p38 MAPKα isoform (MAPK14); assay: p38 MAPKα enzyme inhibition (FRET, Z-LYTE), Method 1; assay type: biochemical; settings: Method 1 (Table 4a1)
[4] = system: Differentiated U937 cells; assay: (l) Cell viability: MTT assay; assay type: cell-based, human; settings: 1 μg/mL
How it was run: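 Differentiated U937 cells were exposed to compound at 1 or 10 μg/mL either 4 h in 5% FCS RPMI1640 or 24 h in 10% FCS RPMI1640, then given MTT for 1 h, DMSO-solubilised and read at 550 nm. Percent viability loss versus 0.5% DMSO vehicle; apparent gains appear negative.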

mice = assay: Mouse cigarette smoke model (macrophage and neutrophil accumulation in BALF); assay type: in vivo; settings: cigarette smoke model, 1.75 μg/mouse (35 μL, bid, i.n.)
Excerpt: The result of treatment with compound Example (8) on macrophage and neutrophil accumulation in BALF in the mouse cigarette smoke model was investigated (Table 5).

Balb/c mice = assay: (A) LPS-induced neutrophil accumulation in mice; assay type: in vivo, mouse; settings: 1.75 μg/mouse
Procedure: […] At T=0, mice are placed into an exposure chamber and exposed to LPS (7.0 mL, 0.5 mg/mL solution in PBS) for 30 min). After a further 8 hr the animals are anesthetized, their tracheas cannulated and BALF extracted by infusing and then withdrawing from their lungs 1.0 mL of PBS via the tracheal catheter. Total and differential white cell counts in the BALF samples are measured using a Neubaur haemocytometer. Cytospin smears of the BALF samples are prepared by centrifugation at 200 rpm for 5 min at RT and stained using a DiffQuik stain system (Dade Behring). Cells are counted using oil immersion microscopy. Data for neutrophil numbers in BAL are shown as mean±S.E.M. (standard error of the mean). The percentage inhibition of neutrophil accumulation is calculated for each treatment relative to vehicle treatment.

T1 sequence (Q16539 whole entry, canonical isoform): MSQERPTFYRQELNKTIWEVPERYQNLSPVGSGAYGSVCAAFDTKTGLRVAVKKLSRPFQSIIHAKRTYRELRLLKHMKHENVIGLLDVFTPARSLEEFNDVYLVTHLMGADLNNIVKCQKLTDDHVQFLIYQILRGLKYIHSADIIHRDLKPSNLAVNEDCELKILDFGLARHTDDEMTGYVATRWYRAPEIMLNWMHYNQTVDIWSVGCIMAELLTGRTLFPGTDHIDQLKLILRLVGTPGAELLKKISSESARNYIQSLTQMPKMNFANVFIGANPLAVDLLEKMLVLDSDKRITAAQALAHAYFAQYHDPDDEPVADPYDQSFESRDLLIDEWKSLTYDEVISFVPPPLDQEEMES

Compound	IC50 [1]	% β-catenin induction ([2]; 1 μg/mL test compound)	% β-catenin induction ([2]; 5 μg/mL test compound)	also measured
C#Cc1cc(Nc2nccc(Oc3ccc(NC(=O)Nc4cc(C(C)C)nn4-c4ccc(C)cc4)c(Cl)c3Cl)n2)cc(C(=O)NCCN2CCOCC2)c1 [Example 87, 3-((4-(2,3-Dichloro-4-(3-(3-isopropyl-1-(p-tolyl)-1H-pyrazol-5-yl)ureido)-phenoxy)pyrimidin-2-yl)amino)-5-ethynyl-N-(2-morpholinoethyl)benzamide]	408 nM	–	–	–
C#Cc1cc(Nc2nccc(Oc3ccc(NC(=O)Nc4cc(C(C)(C)C(F)(F)F)nn4-c4ccc(C)cc4)c4ccccc34)n2)cc(C(=O)NCCN2CCOCC2)c1 [Example 76, 3-Ethynyl-N-(2-morpholinoethyl)-5-((4-((4-(3-(1-(p-tolyl)-3-(1,1,1-trifluoro-2-methylpropan-2-yl)-1H-pyrazol-5-yl)ureido)naphthalen-1-yl)oxy)pyrimidin-2-yl)amino)-benzamide]	233 nM	−3%	−1%	–
C#Cc1cc(Nc2nccc(Oc3ccc(NC(=O)Nc4cc(C(C)(C)C#N)nn4-c4ccc(C)cc4)c4ccccc34)n2)cc(C(=O)NCCN2CCOCC2)c1 [Example 78, 3-((4-((4-(3-(3-(2-Cyanopropan-2-yl)-1-(p-tolyl)-1H-pyrazol-5-yl)ureido)-naphthalen-1-yl)oxy)pyrimidin-2-yl)amino)-5-ethynyl-N-(2-morpholinoethyl)benzamide]	–	9%	0%	–
C#Cc1cc(Nc2nccc(Oc3ccc(NC(=O)Nc4cc(C(C)(C)C)nn4-c4ccc(C)cc4)c4ccccc34)n2)cc(C(=O)N[C@@H](C)CN2CCOCC2)c1 [Example 81, (S)-3-((4-((4-(3-(3-(tert-Butyl)-1-(p-tolyl)-1H-pyrazol-5-yl)ureido)naphthalen-1-yl)oxy)pyrimidin-2-yl)amino)-5-ethynyl-N-(1-morpholinopropan-2-yl)benzamide]	138 nM	3%	−3%	–
C#Cc1cc(Nc2nccc(Oc3ccc(NC(=O)Nc4cc(C(C)(C)C)nn4-c4ccc(C)cc4)c4ccccc34)n2)cc(C(=O)NC(C)(C)CN2CCOCC2)c1 [Example 82, 3-((4-((4-(3-(3-(tert-Butyl)-1-(p-tolyl)-1H-pyrazol-5-yl)ureido)naphthalen-1-yl)oxy)pyrimidin-2-yl)amino)-5-ethynyl-N-(2-methyl-1-morpholinopropan-2-yl)-benzamide]	–	0%	9%	–
C=C(C)c1cc(NC(=O)Nc2ccc(Oc3ccnc(Nc4cc(OC)cc(C(=O)NCCN5CCOCC5)c4)n3)c3ccccc23)n(-c2ccc(OC)cc2)n1 [Example 86, 3-Methoxy-5-((4-((4-(3-(1-(4-methoxyphenyl)-3-(prop-1-en-2-yl)-1H-pyrazol-5-yl)ureido)naphthalen-1-yl)oxy)pyrimidin-2-yl)amino)-N-(2-morpholinoethyl)-benzamide]	–	–	–	IC50 [3]: 10 nM; β-catenin inductive effect relative to the effect produced by the Reference Compound at 1 μg/mL ([2]; test concentration of 10 μg/mL, found to be negative): less than 15%; Cell viability at time point in d-U937 cells 4 h [4]: −ve (−ve and +ve indicate that the value is below and above respectively, the no significant effect threshold, defined as 30% inhibition at 1 μg/mL at the time point indicated.); Cell viability at time point in d-U937 cells 24 h [4]: −ve (−ve and +ve indicate that the value is below and above respectively, the no significant effect threshold, defined as 30% inhibition at 1 μg/mL at the time point indicated.)
COc1cc(Nc2cc(Oc3ccc(NC(=O)Nc4cc(C(C)(C)C)nn4-c4ccc(C)cc4)c4ccccc34)ccn2)cc(C(=O)NCCN2CCOCC2)c1 [Example 1, 3-((4-((4-(3-(3-(tert-Butyl)-1-(p-tolyl)-1H-pyrazol-5-yl)ureido)naphthalen-1-yl)oxy)pyridin-2-yl)amino)-5-methoxy-N-(2-morpholinoethyl)benzamide]	50 nM	−7%	−6%	IC50 [3]: 40 nM; Cell viability at time point in d-U937 cells 4 h [4]: −ve (−ve and +ve indicate that the value is below and above respectively, the no significant effect threshold, defined as 30% inhibition at 1 μg/mL at the time point indicated.); Cell viability at time point in d-U937 cells 24 h [4]: −ve (−ve and +ve indicate that the value is below and above respectively, the no significant effect threshold, defined as 30% inhibition at 1 μg/mL at the time point indicated.)
CCC(=O)O[C@]1(C(=O)SCF)[C@H](C)C[C@H]2[C@@H]3C[C@H](F)C4=CC(=O)C=C[C@]4(C)[C@@]3(F)[C@@H](O)C[C@@]21C [fluticasone propionate, reference compound]	–	–	–	inhibition of neutrophil or macrophage accumulation into airways (mice): did not inhibit; inhibition of LPS-induced neutrophil accumulation (Balb/c mice): > 80%
C#Cc1cc(Nc2nccc(Oc3ccc(NC(=O)Nc4cc(C(C)(C)C)nn4-c4ccc(C)cc4)c4ccccc34)n2)cc(C(=O)N[C@H](C)CN2CCOCC2)c1 [Example 83, (R)-3-((4-((4-(3-(3-(tert-Butyl)-1-(p-tolyl)-1H-pyrazol-5-yl)ureido)naphthalen-1-yl)oxy)pyrimidin-2-yl)amino)-5-ethynyl-N-(1-morpholinopropan-2-yl)benzamide]	261 nM	−3%	−6%	–
C#Cc1cc(Nc2nccc(Oc3ccc(NC(=O)Nc4cc(C(C)(C)C)nn4-c4ccc(C)cc4)c4ccccc34)n2)cc(C(=O)NCCN2CCOCC2)c1 [Example 75, 3-((4-((4-(3-(3-(tert-Butyl)-1-(p-tolyl)-1H-pyrazol-5-yl)ureido)naphthalen-1-yl)oxy)pyrimidin-2-yl)amino)-5-ethynyl-N-(2-morpholinoethyl)benzamide]	49 nM	−14%	−10%	–
C#Cc1cc(Nc2nccc(Oc3ccc(NC(=O)Nc4cc(C(C)(C)C)nn4-c4ccc(OC)cc4)c4ccccc34)n2)cc(C(=O)N[C@@H](C)COC)c1 [Example 85, (S)-3-((4-((4-(3-(3-(tert-Butyl)-1-(4-methoxyphenyl)-1H-pyrazol-5-yl)ureido)-naphthalen-1-yl)oxy)pyrimidin-2-yl)amino)-5-ethynyl-N-(1-methoxypropan-2-yl)-benzamide]	158 nM	7%	3%	% β-catenin induction ([2]; 10 μg/mL test compound): 6%
C#Cc1cc(Nc2nccc(Oc3ccc(NC(=O)Nc4cc(C(C)(C)C)nn4-c4ccc(OC)nc4)c4ccccc34)n2)cc(C(=O)NCCN2CCOCC2)c1 [Example 73, 3-((4-((4-(3-(3-(tert-Butyl)-1-(6-methoxypyridin-3-yl)-1H-pyrazol-5-yl)ureido)naphthalen-1-yl)oxy)pyrimidin-2-yl)amino)-5-ethynyl-N-(2-morpholinoethyl)benzamide]	47 nM	17%	−7%	% β-catenin induction ([2]; 10 μg/mL test compound): 7%
